Test results: doi:10.1101/2025.01.28.635346v1 (bioRxiv, 2025)
Bridge positions count the residues as written; N and C are the ends. Side chains are listed from the residue outwards. Peptide text beside a SMILES is read from it. * marks the point of attachment. Butanoyl(4-(4-I-phenyl)) = O=C(CCCc1ccc(I)cc1)*; PEG2 = NCCOCCOCCC(=O)O

Columns and labels:
integrin α5β1 = integrin α5β1 (Homo sapiens, UniProt P05556+P08648); assay: ELISA competition assay, integrin α5β1; assay type: binding
integrin αvβ1 = integrin αvβ1 (Homo sapiens, UniProt P05556+P06756); assay: ELISA competition assay, integrin αvβ1; assay type: binding
integrin αvβ3 [1] = target: T1, integrin αvβ3 (Homo sapiens, UniProt P05106+P06756); assay: ELISA competition assay, integrin αvβ3; assay type: binding
integrin αvβ6 [2] = target: T2, integrin αvβ6 (Homo sapiens, UniProt P06756+P18564); assay: ELISA competition assay, integrin αvβ6 binding to LAP; conditions: αvβ6 IC50, ELISA competition vs LAP; mean, n ≥ 3
integrin α8β1 = integrin α8β1 (Homo sapiens, UniProt P05556+P53708); assay: ELISA competition assay, integrin α8β1; assay type: binding
integrin αIIbβ3 = target: T3, integrin αIIbβ3 (Homo sapiens, UniProt P05106+P08514); assay: ELISA competition assay, integrin αIIbβ3; assay type: binding
T3 sequence (P08514 32-993 limits assumed): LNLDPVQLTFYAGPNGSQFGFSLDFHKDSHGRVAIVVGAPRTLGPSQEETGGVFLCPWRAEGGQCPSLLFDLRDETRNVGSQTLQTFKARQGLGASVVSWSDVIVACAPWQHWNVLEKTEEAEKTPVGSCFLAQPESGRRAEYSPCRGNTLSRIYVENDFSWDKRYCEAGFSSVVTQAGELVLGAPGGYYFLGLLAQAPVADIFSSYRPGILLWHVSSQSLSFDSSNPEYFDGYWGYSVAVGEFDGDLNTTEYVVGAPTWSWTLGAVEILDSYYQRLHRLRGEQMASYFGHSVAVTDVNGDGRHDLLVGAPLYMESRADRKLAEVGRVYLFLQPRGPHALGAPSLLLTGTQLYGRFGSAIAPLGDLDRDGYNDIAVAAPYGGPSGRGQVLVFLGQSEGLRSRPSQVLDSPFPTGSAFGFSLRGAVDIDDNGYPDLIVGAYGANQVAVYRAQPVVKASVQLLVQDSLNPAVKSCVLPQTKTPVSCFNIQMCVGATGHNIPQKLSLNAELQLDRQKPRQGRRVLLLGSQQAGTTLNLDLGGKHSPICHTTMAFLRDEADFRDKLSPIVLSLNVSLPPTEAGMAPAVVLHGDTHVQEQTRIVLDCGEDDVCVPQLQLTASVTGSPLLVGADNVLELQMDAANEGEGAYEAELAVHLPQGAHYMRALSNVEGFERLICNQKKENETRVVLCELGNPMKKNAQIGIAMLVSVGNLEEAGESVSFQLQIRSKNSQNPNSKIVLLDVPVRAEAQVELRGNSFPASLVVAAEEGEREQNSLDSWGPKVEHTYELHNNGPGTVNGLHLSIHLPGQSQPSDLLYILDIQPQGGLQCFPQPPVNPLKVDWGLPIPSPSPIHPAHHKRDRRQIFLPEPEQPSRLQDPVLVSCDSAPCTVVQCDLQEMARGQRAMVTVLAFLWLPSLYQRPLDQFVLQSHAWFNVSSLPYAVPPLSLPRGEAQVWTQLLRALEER
T3 sequence (P05106 27-718 limits assumed): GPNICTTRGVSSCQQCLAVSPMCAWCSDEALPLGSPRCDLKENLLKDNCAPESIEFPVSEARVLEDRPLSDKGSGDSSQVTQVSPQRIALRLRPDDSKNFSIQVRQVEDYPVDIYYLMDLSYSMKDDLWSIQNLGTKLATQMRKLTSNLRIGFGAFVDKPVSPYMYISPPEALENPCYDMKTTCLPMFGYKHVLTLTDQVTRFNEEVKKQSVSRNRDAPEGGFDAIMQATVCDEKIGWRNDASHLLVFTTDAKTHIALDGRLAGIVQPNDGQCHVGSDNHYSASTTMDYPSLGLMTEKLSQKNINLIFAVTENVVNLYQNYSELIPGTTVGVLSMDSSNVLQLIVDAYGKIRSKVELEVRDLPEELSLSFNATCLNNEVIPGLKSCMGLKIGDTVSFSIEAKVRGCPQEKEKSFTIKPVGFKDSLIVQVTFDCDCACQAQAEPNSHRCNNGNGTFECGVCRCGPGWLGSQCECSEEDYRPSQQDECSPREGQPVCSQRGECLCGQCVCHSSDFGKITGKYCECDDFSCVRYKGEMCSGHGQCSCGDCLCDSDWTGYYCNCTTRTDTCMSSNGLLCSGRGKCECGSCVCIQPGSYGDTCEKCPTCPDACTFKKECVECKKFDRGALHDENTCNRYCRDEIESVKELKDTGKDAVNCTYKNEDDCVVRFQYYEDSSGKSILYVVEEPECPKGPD

integrin αvβ5 = integrin αvβ5 (Homo sapiens, UniProt P06756+P18084); assay: ELISA competition assay, integrin αvβ5; assay type: binding
integrin αvβ8 [3] = target: T4, integrin αvβ8 (Homo sapiens, UniProt P06756+P26012); assay: ELISA competition assay, integrin αvβ8 binding to LAP
integrin αvβ8 [4] = target: T4, integrin αvβ8; assay: AlphaLISA competition assay vs LAP, biotinylated αvβ8; assay type: binding
integrin αvβ6 [5] = target: T2, integrin αvβ6; assay: AlphaLISA competition assay vs LAP, biotinylated αvβ6; assay type: binding
integrin αvβ3 [6] = target: T1, integrin αvβ3; assay: AlphaLISA competition assay vs LAP, biotinylated αvβ3; assay type: binding

Row | Structure (SMILES) | IC50 (integrin αvβ8 [4]) | IC50 (integrin αvβ6 [5]) | IC50 (integrin αvβ3 [6]) | also measured
1 | CC(C)C[C@H](NC(=O)[C@H](CC(=O)O)NC(=O)CNC(=O)[C@H](CCCNC(=N)N)NC(=O)[C@@H](NC(=O)[C@H](Cc1ccccc1)NC(=O)[C@H](Cc1ccc(O)cc1)NC(=O)[C@@H]1CCC(=O)NCC(=O)NCC(=O)N[C@@H](CCCCNC(=O)CCOCCOCCNC(=O)CCCc2ccc(I)cc2)C(=O)NCC(=O)N[C@@H](Cc2c[nH]cn2)C(=O)N[C@@H](C(C)C)C(=O)N2CCC[C@H]2C(=O)N1)C(C)C)C(=O)N[C@@H](CCC(N)=O)C(=O)N[C@@H](CO)C(=O)N[C@@H](Cc1ccccc1)C(=O)N[C@@H](Cc1ccc(O)cc1)C(=O)NCC(=O)O [lassotide 48] (GGK([PEG2-Butanoyl(4-(4-I-phenyl))])GHVPEYFVRGDLQSFYG-OH; lactam N-8; C-terminus assumed) |  |  |  | IC50 (integrin α5β1): 2590 nM; IC50 (integrin αvβ1): 46 nM; IC50 (integrin αvβ3 [1]): 315 nM; IC50 (integrin αvβ6 [2]): 0.7 nM; IC50 (integrin α8β1): > 10 µM; IC50 (integrin αIIbβ3): 446 nM; IC50 (integrin αvβ5): > 10 µM; IC50 (integrin αvβ8 [3]): 0.8 nM
2 | CC[C@H](C)[C@H](NC(=O)[C@@H]1CCCN1C(=O)[C@@H](NC(=O)[C@H](CC(C)C)NC(=O)[C@H](CC(=O)O)NC(=O)CNC(=O)[C@H](CCCNC(=N)N)NC(=O)[C@H](Cc1ccccc1)NC(=O)[C@H](Cc1ccc(O)cc1)NC(=O)[C@@H]1CCC(=O)NCC(=O)NCC(=O)N[C@@H](C)C(=O)NCC(=O)N[C@@H](Cc2c[nH]cn2)C(=O)N[C@@H](C(C)C)C(=O)N2CCC[C@H]2C(=O)N1)[C@@H](C)O)C(=O)N[C@@H](CO)C(=O)N[C@@H](Cc1ccccc1)C(=O)N[C@@H](Cc1ccc(O)cc1)C(=O)NCC(=O)O [lassotide 7] (GGAGHVPEYFRGDLTPISFYG-OH; lactam N-8; C-terminus assumed) | 485 nM | 2040 nM | 571 nM | 
3 | CC[C@H](C)[C@H](NC(=O)[C@@H]1CCCN1C(=O)[C@H](Cc1ccccc1)NC(=O)[C@H](CC(=O)O)NC(=O)CNC(=O)[C@H](CCCNC(=N)N)NC(=O)[C@@H](NC(=O)[C@H](Cc1ccccc1)NC(=O)[C@H](Cc1ccc(O)cc1)NC(=O)[C@@H]1CCC(=O)NCC(=O)NCC(=O)N[C@@H](C)C(=O)NCC(=O)N[C@@H](Cc2c[nH]cn2)C(=O)N[C@@H](C(C)C)C(=O)N2CCC[C@H]2C(=O)N1)C(C)C)C(=O)N[C@@H](CO)C(=O)N[C@@H](Cc1ccccc1)C(=O)N[C@@H](Cc1ccc(O)cc1)C(=O)NCC(=O)O [lassotide 3] (GGAGHVPEYFVRGDFPISFYG-OH; lactam N-8; C-terminus assumed) | 295 nM | 253 nM | 1 nM | 
4 | CC[C@H](C)[C@H](NC(=O)[C@@H]1CCCN1C(=O)[C@H](CC(C)C)NC(=O)[C@H](CC(=O)O)NC(=O)[C@@H]1CCCN1C(=O)[C@H](CCCNC(=N)N)NC(=O)[C@@H](NC(=O)[C@H](Cc1ccccc1)NC(=O)[C@H](Cc1ccc(O)cc1)NC(=O)[C@@H]1CCC(=O)NCC(=O)NCC(=O)N[C@@H](C)C(=O)NCC(=O)N[C@@H](Cc2c[nH]cn2)C(=O)N[C@@H](C(C)C)C(=O)N2CCC[C@H]2C(=O)N1)C(C)C)C(=O)N[C@@H](CO)C(=O)N[C@@H](Cc1ccccc1)C(=O)N[C@@H](Cc1ccc(O)cc1)C(=O)NCC(=O)O [lassotide 10] (GGAGHVPEYFVRPDLPISFYG-OH; lactam N-8; C-terminus assumed) | > 10000 nM | > 10000 nM | > 10000 nM | 
5 | CC[C@H](C)[C@H](NC(=O)CNC(=O)[C@@H](NC(=O)[C@H](Cc1ccccc1)NC(=O)[C@H](Cc1ccc(O)cc1)NC(=O)[C@@H]1CCC(=O)NCC(=O)NCC(=O)N[C@@H](CCCNC(=N)N)C(=O)NCC(=O)N[C@@H](CC(=O)O)C(=O)N[C@@H](CC(C)C)C(=O)N2CCC[C@H]2C(=O)N1)C(C)C)C(=O)NCC(=O)N[C@H](C(=O)N1CCC[C@H]1C(=O)N[C@H](C(=O)N[C@@H](CO)C(=O)N[C@@H](Cc1ccccc1)C(=O)N[C@@H](Cc1ccc(O)cc1)C(=O)NCC(=O)O)[C@@H](C)CC)[C@@H](C)O [lassotide 11] (GGRGDLPEYFVGIGTPISFYG-OH; lactam N-8; C-terminus assumed) | > 10000 nM | > 10000 nM | > 10000 nM | 
6 | CC[C@H](C)[C@H](NC(=O)[C@H](CC(C)C)NC(=O)[C@H](CC(=O)O)NC(=O)CNC(=O)[C@H](CCCNC(=N)N)NC(=O)CNC(=O)[C@@H](NC(=O)[C@H](Cc1ccccc1)NC(=O)[C@H](Cc1ccc(O)cc1)NC(=O)[C@@H]1CCC(=O)NCC(=O)NCC(=O)N[C@@H](C)C(=O)NCC(=O)N[C@@H](Cc2c[nH]cn2)C(=O)N[C@@H](C(C)C)C(=O)N2CCC[C@H]2C(=O)N1)C(C)C)C(=O)N[C@@H](CO)C(=O)N[C@@H](Cc1ccccc1)C(=O)N[C@@H](Cc1ccc(O)cc1)C(=O)NCC(=O)O [lassotide 8] (GGAGHVPEYFVGRGDLISFYG-OH; lactam N-8; C-terminus assumed) | 466 nM | 478 nM | 2560 nM | 
7 | CC[C@H](C)[C@H](NC(=O)[C@@H]1CCCN1C(=O)[C@@H](NC(=O)[C@H](CCCNC(=N)N)NC(=O)CNC(=O)[C@H](CC(=O)O)NC(=O)[C@H](CC(C)C)NC(=O)[C@H](Cc1ccccc1)NC(=O)[C@H](Cc1ccc(O)cc1)NC(=O)[C@@H]1CCC(=O)NCC(=O)NCC(=O)N[C@@H](C)C(=O)NCC(=O)N[C@@H](Cc2c[nH]cn2)C(=O)N[C@@H](C(C)C)C(=O)N2CCC[C@H]2C(=O)N1)[C@@H](C)O)C(=O)N[C@@H](CO)C(=O)N[C@@H](Cc1ccccc1)C(=O)N[C@@H](Cc1ccc(O)cc1)C(=O)NCC(=O)O [lassotide 9] (GGAGHVPEYFLDGRTPISFYG-OH; lactam N-8; C-terminus assumed) | 1300 nM | > 10000 nM | > 10000 nM | 
8 | CC[C@H](C)[C@H](NC(=O)CNC(=O)[C@@H](NC(=O)[C@H](Cc1ccccc1)NC(=O)[C@H](Cc1ccc(O)cc1)NC(=O)[C@@H]1CCC(=O)NCC(=O)NCC(=O)N[C@@H](C)C(=O)NCC(=O)N[C@@H](Cc2cnc[nH]2)C(=O)N[C@@H](C(C)C)C(=O)N2CCC[C@H]2C(=O)N1)C(C)C)C(=O)NCC(=O)N[C@H](C(=O)N1CCC[C@H]1C(=O)N[C@H](C(=O)N[C@@H](CO)C(=O)N[C@@H](Cc1ccccc1)C(=O)N[C@@H](Cc1ccc(O)cc1)C(=O)NCC(=O)O)[C@@H](C)CC)[C@@H](C)O [lassotide 1, MccJ25, reference compound] (GGAGHVPEYFVGIGTPISFYG-OH; lactam N-8) | > 10000 nM | > 10000 nM | > 10000 nM | 
